# Experimental data published in ChEMBL document CHEMBL1132884, “Carbonic anhydrase inhibitors: synthesis of N-morpholylthiocarbonylsulfenylamino aromatic/heterocyclic sulfonamides and their interaction with isozymes I, II and IV” (Bioorg Med Chem Lett, 2000).
# Key:
# Carbonic anhydrase 4 = biological target: T1, Carbonic anhydrase 4 (Bos taurus, UniProt Q95323)
# T1 sequence (Q95323 whole entry): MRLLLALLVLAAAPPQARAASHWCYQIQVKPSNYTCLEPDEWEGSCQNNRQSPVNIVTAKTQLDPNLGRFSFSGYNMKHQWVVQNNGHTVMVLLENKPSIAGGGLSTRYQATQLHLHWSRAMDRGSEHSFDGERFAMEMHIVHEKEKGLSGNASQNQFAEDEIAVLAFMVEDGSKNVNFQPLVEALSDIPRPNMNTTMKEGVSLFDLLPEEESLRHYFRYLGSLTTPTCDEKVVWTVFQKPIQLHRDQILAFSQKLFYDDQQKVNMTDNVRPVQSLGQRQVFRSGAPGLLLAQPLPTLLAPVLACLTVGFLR
# Description: Inhibition of bovine carbonic anhydrase IV from bovine lung microsomes
# Carbonic anhydrase 2 = Carbonic anhydrase 2 (Homo sapiens, UniProt P00918)
# Description: Inhibition of human carbonic anhydrase II (hCA II)
# Carbonic anhydrase 1 = Carbonic anhydrase 1 (Homo sapiens, UniProt P00915)
# Sequence of Carbonic anhydrase 1 (P00915 whole entry): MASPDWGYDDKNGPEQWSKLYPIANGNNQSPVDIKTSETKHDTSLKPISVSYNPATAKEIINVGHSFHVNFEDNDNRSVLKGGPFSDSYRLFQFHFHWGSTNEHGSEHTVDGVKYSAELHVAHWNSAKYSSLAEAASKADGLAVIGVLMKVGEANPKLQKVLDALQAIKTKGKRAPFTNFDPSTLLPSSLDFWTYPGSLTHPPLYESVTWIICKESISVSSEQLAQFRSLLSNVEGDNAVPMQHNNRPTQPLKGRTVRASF
# Description: Inhibition of human carbonic anhydrase I (CAI)
# CAKI-1 = assay: Compound was tested in vitro for its antitumor activity against renal cancer cell line CAKI-I (50% growth inhibition of tumor cells after 48 hr exposure ); type: functional; conditions: Homo sapiens, CAKI-1, 48 h
# SF-268 = assay: Compound was tested in vitro for its antitumor activity against CNS cancer cell line SF-268 (50% growth inhibition of tumor cells after 48 hr exposure ); type: functional; conditions: Homo sapiens, SF-268, 48 h
# HL-60 = assay: Compound was tested in vitro for its antitumor activity against leukemia cell line HL-60(50% growth inhibition of tumor cells after 48 hr exposure ); type: functional; conditions: Homo sapiens, HL-60, 48 h
# COLO 205 = assay: Compound was tested in vitro for its antitumor activity against colon cancer cell line COLO-205 (50% growth inhibition of tumor cells after 48 hr exposure ); type: functional; conditions: Homo sapiens, COLO 205, 48 h
# 786-0 = assay: Compound was tested in vitro for its antitumor activity against renal cancer cell line […] (50% growth inhibition of tumor cells after 48 hr exposure ); type: functional; conditions: Homo sapiens, 786-0, 48 h
# OVCAR-4 = assay: Compound was tested in vitro for its antitumor activity against ovarian cancer cell line OVCAR-4 (50% growth inhibition of tumor cells after 48 hr exposure ); type: functional; conditions: Homo sapiens, OVCAR-4, 48 h
# M14 = assay: Compound was tested in vitro for its antitumor activity against melanoma cell line M14 (50% growth inhibition of tumor cells after 48 hr exposure ); type: functional; conditions: Homo sapiens, M14, 48 h
# PC-3 = assay: Compound was tested in vitro for its antitumor activity against prostate cancer cell line PC-3 (50% growth inhibition of tumor cells after 48 hr exposure ); type: functional; conditions: Homo sapiens, PC-3, 48 h
# SK-MEL-2 = assay: Compound was tested in vitro for its antitumor activity against melanoma cell line SK-MEL-2 (50% growth inhibition of tumor cells after 48 hr exposure ); type: functional; conditions: Homo sapiens, SK-MEL-2, 48 h
# ACHN = assay: Compound was tested in vitro for its antitumor activity against renal cancer cell line ACHN (50% growth inhibition of tumor cells after 48 hr exposure ); type: functional; conditions: Homo sapiens
# IGROV-1 = assay: Compound was tested in vitro for its antitumor activity against ovarian cancer cell line IGROVI (50% growth inhibition of tumor cells after 48 hr exposure ); type: functional; conditions: Homo sapiens, IGROV-1, 48 h
# MCF7 = assay: Compound was tested in vitro for its antitumor activity against breast cancer cell line MCF-7 (50% growth inhibition of tumor cells after 48 hr exposure ); type: functional; conditions: Homo sapiens, MCF7, 48 h
# MOLT-4 = assay: Compound was tested in vitro for its antitumor activity against leukemia cell line MOLT-4 (50% growth inhibition of tumor cells after 48 hr exposure ); type: functional; conditions: Homo sapiens, MOLT-4, 48 h
# HCT-15 = assay: Compound was tested in vitro for its antitumor activity against colon cancer cell line HCT-15 (50% growth inhibition of tumor cells after 48 hr exposure ); type: functional; conditions: Homo sapiens, HCT-15, 48 h
# A549 = assay: Compound was tested in vitro for its antitumor activity against non-small cell lung cancer cell line A549/ATCC(50% growth inhibition of tumor cells after 48 hr exposure ); type: functional; conditions: Homo sapiens, A549, 48 h
# HOP-62 = assay: Compound was tested in vitro for its antitumor activity against non-small cell lung cancer cell line HOP-62(50% growth inhibition of tumor cells after 48 hr exposure ); type: functional; conditions: Homo sapiens, HOP-62, 48 h
# MDA-N = assay: Compound was tested in vitro for its antitumor activity against breast cancer cell line MDA-N (50% growth inhibition of tumor cells after 48 hr exposure ); type: functional; conditions: Homo sapiens
# LOX IMVI = assay: Compound was tested in vitro for its antitumor activity against melanoma cell line LOX IMVI (50% growth inhibition of tumor cells after 48 hr exposure ); type: functional; conditions: Homo sapiens
# SR = assay: Compound was tested in vitro for its antitumor activity against leukemia cell line SR (50% growth inhibition of tumor cells after 48 hr exposure ); type: functional; conditions: Homo sapiens
# NCI-H522 = assay: Compound was tested in vitro for its antitumor activity against non-small cell lung cancer cell line NCI-H522 (50% growth inhibition of tumor cells after 48 hr exposure ); type: functional; conditions: Homo sapiens, NCI-H522, 48 h
# DU-145 = assay: Compound was tested in vitro for its antitumor activity against prostate cancer cell line DU-145 (50% growth inhibition of tumor cells after 48 hr exposure ); type: functional; conditions: Homo sapiens, DU-145, 48 h
# SF-295 = assay: Compound was tested in vitro for its antitumor activity against CNS cancer cell line SF-295 (50% growth inhibition of tumor cells after 48 hr exposure ); type: functional; conditions: Homo sapiens, SF-295, 48 h
structure (smiles),measurement,setting,value
CCN(C)C(=S)SNCc1ccc(S(N)(=O)=O)cc1,Ki,Carbonic anhydrase 4,41 nM
same,Ki,Carbonic anhydrase 2,13 nM
same,Ki,Carbonic anhydrase 1,950 nM
CCN(C)C(=S)SNc1ccc(S(N)(=O)=O)cc1,Ki,Carbonic anhydrase 4,140 nM
same,Ki,Carbonic anhydrase 2,48 nM
same,Ki,Carbonic anhydrase 1,15000 nM
NS(=O)(=O)c1nnc(NS(=O)(=O)c2ccc(NSC(=S)N3CCOCC3)cc2)s1,Ki,Carbonic anhydrase 4,4 nM
same,Ki,Carbonic anhydrase 2,1.4 nM
same,Ki,Carbonic anhydrase 1,5 nM
NS(=O)(=O)c1ccc(NSC(=S)N2CCOCC2)c(F)c1,Ki,Carbonic anhydrase 4,120 nM
same,Ki,Carbonic anhydrase 2,33 nM
same,Ki,Carbonic anhydrase 1,760 nM
NS(=O)(=O)c1cccc(NSC(=S)N2CCOCC2)c1,Ki,Carbonic anhydrase 4,290 nM
same,Ki,Carbonic anhydrase 2,150 nM
same,Ki,Carbonic anhydrase 1,10000 nM
NS(=O)(=O)c1nnc(NC(=O)CCNSC(=S)N2CCOCC2)s1,Ki,Carbonic anhydrase 4,21 nM
same,Ki,Carbonic anhydrase 2,2 nM
same,Ki,Carbonic anhydrase 1,105 nM
NS(=O)(=O)c1ccc(CNSC(=S)N2CCOCC2)cc1,GI50,CAKI-1,17 µM
same,GI50,SF-268,16 µM
same,GI50,HL-60,90 nM
same,GI50,COLO 205,30 µM
same,GI50,786-0,10 µM
same,GI50,OVCAR-4,> 100 µM
same,GI50,M14,10 µM
same,GI50,PC-3,12 µM
same,GI50,SK-MEL-2,12 µM
same,GI50,ACHN,15 µM
same,GI50,IGROV-1,52 µM
same,Ki,Carbonic anhydrase 4,35 nM
same,GI50,MCF7,30 nM
same,GI50,MOLT-4,9 µM
same,GI50,HCT-15,24 µM
same,GI50,A549,38 µM
same,GI50,HOP-62,15 µM
same,GI50,MDA-N,15 µM
same,GI50,LOX IMVI,12 µM
same,GI50,SR,150 nM
same,Ki,Carbonic anhydrase 2,10 nM
same,GI50,NCI-H522,19 nM
same,GI50,DU-145,13 µM
same,GI50,SF-295,5.4 µM
same,Ki,Carbonic anhydrase 1,620 nM
NS(=O)(=O)c1ccc(NS(=O)(=O)c2ccc(NSC(=S)N3CCOCC3)cc2)cc1,Ki,Carbonic anhydrase 4,10 nM
same,Ki,Carbonic anhydrase 2,3 nM
same,Ki,Carbonic anhydrase 1,30 nM
CCN(SC(=S)N1CCOCC1)C1CC(C)S(=O)(=O)c2sc(S(N)(=O)=O)cc21 (stereo not given),Ki,Carbonic anhydrase 4,22 nM
same,Ki,Carbonic anhydrase 2,6 nM
same,Ki,Carbonic anhydrase 1,> 50000 nM
NS(=O)(=O)c1ccc(NSC(=S)N2CCOCC2)c(Br)c1,Ki,Carbonic anhydrase 4,96 nM
same,Ki,Carbonic anhydrase 2,48 nM
same,Ki,Carbonic anhydrase 1,2400 nM
NS(=O)(=O)c1ccccc1NSC(=S)N1CCOCC1,Ki,Carbonic anhydrase 4,500 nM
same,Ki,Carbonic anhydrase 2,780 nM
same,Ki,Carbonic anhydrase 1,11500 nM
NS(=O)(=O)c1ccc(NNSC(=S)N2CCOCC2)cc1,Ki,Carbonic anhydrase 4,650 nM
same,Ki,Carbonic anhydrase 2,790 nM
same,Ki,Carbonic anhydrase 1,24000 nM
Cn1nc(S(N)(=O)=O)s/c1=N/SC(=S)N1CCOCC1,Ki,Carbonic anhydrase 4,26 nM
same,Ki,Carbonic anhydrase 2,6 nM
same,Ki,Carbonic anhydrase 1,200 nM
CCN(C)C(=S)SNCCc1ccc(S(N)(=O)=O)cc1,Ki,Carbonic anhydrase 4,30 nM
same,Ki,Carbonic anhydrase 2,11 nM
same,Ki,Carbonic anhydrase 1,630 nM
Cn1nc(S(N)(=O)=O)s/c1=N/S(=O)(=O)c1ccc(NSC(=S)N2CCOCC2)cc1,Ki,Carbonic anhydrase 4,1.3 nM
same,Ki,Carbonic anhydrase 2,0.5 nM
same,Ki,Carbonic anhydrase 1,2 nM
NS(=O)(=O)c1ccc(NSC(=S)N2CCOCC2)c(I)c1,Ki,Carbonic anhydrase 4,170 nM
same,Ki,Carbonic anhydrase 2,55 nM
same,Ki,Carbonic anhydrase 1,3000 nM
NS(=O)(=O)c1nnc(NSC(=S)N2CCOCC2)s1,Ki,Carbonic anhydrase 4,25 nM
same,Ki,Carbonic anhydrase 2,6 nM
same,Ki,Carbonic anhydrase 1,240 nM
NS(=O)(=O)c1ccc(NSC(=S)N2CCOCC2)c(Cl)c1,Ki,Carbonic anhydrase 4,94 nM
same,Ki,Carbonic anhydrase 2,40 nM
same,Ki,Carbonic anhydrase 1,800 nM
NS(=O)(=O)c1cc(S(N)(=O)=O)c(NSC(=S)N2CCOCC2)cc1Cl,Ki,Carbonic anhydrase 4,90 nM
same,Ki,Carbonic anhydrase 2,15 nM
same,Ki,Carbonic anhydrase 1,560 nM
NS(=O)(=O)c1ccc(NSC(=S)N2CCOCC2)cc1,GI50,CAKI-1,30 µM
same,GI50,SF-268,58 µM
same,GI50,HL-60,86 nM
same,GI50,COLO 205,32 µM
same,GI50,786-0,12 µM
same,GI50,OVCAR-4,> 100 µM
same,GI50,M14,14 µM
same,GI50,PC-3,24 µM
same,GI50,SK-MEL-2,31 µM
same,GI50,ACHN,31 µM
same,GI50,IGROV-1,70 µM
same,Ki,Carbonic anhydrase 4,100 nM
same,GI50,MCF7,33 nM
same,GI50,MOLT-4,10 µM
same,GI50,HCT-15,68 µM
same,GI50,A549,46 µM
same,GI50,HOP-62,78 µM
same,GI50,MDA-N,61 µM
same,GI50,LOX IMVI,34 µM
same,GI50,SR,200 nM
same,Ki,Carbonic anhydrase 2,36 nM
same,GI50,NCI-H522,420 nM
same,GI50,DU-145,80 µM
same,GI50,SF-295,44 µM
same,Ki,Carbonic anhydrase 1,9000 nM
NS(=O)(=O)c1cc(S(N)(=O)=O)c(NSC(=S)N2CCOCC2)c(Cl)c1Cl,Ki,Carbonic anhydrase 4,49 nM
same,Ki,Carbonic anhydrase 2,18 nM
same,Ki,Carbonic anhydrase 1,500 nM
NS(=O)(=O)c1cccc(NS(=O)(=O)c2ccc(NSC(=S)N3CCOCC3)cc2)c1,Ki,Carbonic anhydrase 4,10 nM
same,Ki,Carbonic anhydrase 2,7 nM
same,Ki,Carbonic anhydrase 1,31 nM
NS(=O)(=O)c1ccc(CCNSC(=S)N2CCOCC2)cc1,GI50,CAKI-1,9 µM
same,GI50,SF-268,90 µM
same,GI50,HL-60,70 nM
same,GI50,COLO 205,21 µM
same,GI50,786-0,11 µM
same,GI50,OVCAR-4,61 µM
same,GI50,M14,8 µM
same,GI50,PC-3,11 µM
same,GI50,SK-MEL-2,5 µM
same,GI50,ACHN,15 µM
same,GI50,IGROV-1,0.09 µM
same,Ki,Carbonic anhydrase 4,24 nM
same,GI50,MCF7,26 nM
same,GI50,MOLT-4,54 µM
same,GI50,HCT-15,> 100 µM
same,GI50,A549,11 µM
same,GI50,HOP-62,62 µM
same,GI50,MDA-N,13 µM
same,GI50,LOX IMVI,5 µM
same,GI50,SR,< 10 nM
same,Ki,Carbonic anhydrase 2,8 nM
same,GI50,NCI-H522,75 nM
same,GI50,DU-145,10 µM
same,GI50,SF-295,> 100 µM
same,Ki,Carbonic anhydrase 1,360 nM
